Experimental findings from article PMC3146558 (Cellular and molecular neurobiology, 2011) are described below.

Structures can show the parent of a compound that is named as a salt. Where two headings read alike, the source gives them in different places.

Assay [1] relates to morphine induced cAMP overshoot. Briefly: Inhibition of morphine-induced cAMP overshoot, qHTS of LOPAC library. The class given is cell-based.
Another assay deals with HEK-MOR cells. Briefly: Assay performance in 1536-well plate format. Conditions: mean ± SD from 288 wells. It is filed as cell-based.

On to `C=CCN1CC[C@]23c4c5ccc(O)c4O[C@H]2/C(=N/NC(=O)c2ccccc2)CC[C@@]3(O)[C@H]1C5` [Naloxone benzoylhydrazone], for which, in assay [1] (18 h, read-out: Potency), the IC50 was 410 nM.

Regarding `CCCCCCCCCCCCCCCCCC(=O)NCC(COP(=O)([O-])OCC[N+](C)(C)C)OCC` (racemic) [rac-2-Ethoxy-3-octadecanamido-1-propylphosphocholine], the IC50 in assay [1] (18 h, read-out: Potency) worked out at 18400 nM.

For `Oc1ccc2c3c1O[C@H]1c4oc5ccccc5c4C[C@@]4(O)[C@@H](C2)N(CC2CC2)CC[C@]314` [Naltriben methanesulfonate], the IC50 in assay [1] (18 h, read-out: Potency) is 2310 nM.

Regarding `Oc1ccc2c3c1O[C@H]1c4[nH]c5ccccc5c4C[C@@]4(O)[C@@H](C2)N(CC2CC2)CC[C@]314` [Naltrindole hydrochloride], the IC50 in assay [1] (18 h, read-out: Potency) came out at 820 nM; in assay [1] (read-out: IC50), 810 nM.

Turning to `C=C1C(=O)O[C@H]2[C@H]1CC/C(C)=C/CC[C@@]1(C)O[C@@H]21` [Parthenolide], in assay [1] (18 h, read-out: Potency), the IC50 is 16400 nM.

As to `O=C1CC[C@@]2(O)[C@H]3Cc4ccc(O)c5c4[C@@]2(CCN3CC2CC2)[C@H]1O5` [Naltrexone hydrochloride], the IC50 came out at 120 nM in assay [1] (18 h, read-out: Potency) and 110 nM in assay [1] (read-out: IC50).

Turning to `CN1CC[C@]23c4c5ccc(O)c4O[C@H]2[C@@H](O)C=C[C@H]3[C@H]1C5` [Morphine, morphine sulfate pentahydrate], the “ratio (665nm/620nm), morphine treatment” value with HEK-MOR cells (NKH 477 10 nM) amounted to 1.63 ± 0.13; with HEK-MOR cells (NKH 477 25 nM), 1.08 ± 0.05; in the assay with HEK-MOR cells (NKH 477 50 nM) it was 0.88 ± 0.04.

Turning to `CCC(=O)c1ccc2c(c1)N(CCCN(C)C)c1ccccc1S2` [Propionylpromazine hydrochloride], the IC50 in assay [1] (18 h, read-out: Potency) amounted to 16400 nM.

Take `C=CCN1CC[C@]23CCCC[C@H]2[C@H]1Cc1ccc(O)cc13` [Levallorphan tartrate]: the IC50 in assay [1] (18 h, read-out: Potency) was determined as 330 nM; in assay [1] (read-out: IC50), 320 nM.

For `CCCN(CCC)CCc1cccc2c1CC(=O)N2` [Ropinirole hydrochloride], the IC50 in assay [1] (18 h, read-out: Potency) turned out to be 18400 nM.

On to `CC1(C(=O)O)C2CCC(O2)C1(C)C(=O)O` (centres unmarked) [Cantharidic Acid], for which, in assay [1] (18 h, read-out: Potency), the IC50 amounted to 14600 nM.

As for `C[C@@]12C(=O)OC(=O)[C@]1(C)[C@H]1CC[C@@H]2O1` [Cantharidin], the IC50 in assay [1] (18 h, read-out: Potency) is 13000 nM.
